Test results reported in ChEMBL document CHEMBL5223171, “Synthesis and discovery of Baylis-Hillman adducts as potent and selective thioredoxin reductase inhibitors for cancer treatment” (Bioorg Med Chem, 2023).

Tests used:
[1] = test system: HepG2; experiment: Cytotoxicity against human HepG2 cells assessed as reduction in cell viability incubated for 72 hrs by MTT assay; format: functional, cell-based; details: HepG2, 72 h
[2] = test system: A549; experiment: Cytotoxicity against human A549 cells assessed as reduction in cell viability incubated for 72 hrs by MTT assay; format: functional, cell-based; details: A549, 72 h
[3] = test system: HeLa; experiment: Cytotoxicity against human HeLa cells assessed as reduction in cell viability incubated for 72 hrs by MTT assay; format: functional, cell-based
[4] = test system: HepG2; experiment: Inhibition of TrxR in human HepG2 cells at 2.5 to 10 uM incubated for 52 hrs by TRFS-green staining based fluorescence microscopic analysis; format: cell-based; details: dose 2.5-10 µM
[5] = test system: HepG2; experiment: Inhibition of colony formation in human HepG2 cells assessed as reduction in colony number at 5 to 10 uM incubated for 5 days by crystal violet staining assay; format: functional, cell-based; details: dose 5-10 µM, time 5.0 day
[6] = test system: HepG2; experiment: Inhibition of colony formation in human HepG2 cells at 5 uM incubated for 5 days by crystal violet staining assay; format: functional; details: HepG2, 120 h, time 5 day
[7] = molecular target: Thioredoxin reductase (Escherichia coli (strain K12), UniProt P0A9P4); experiment: Inhibition of Escherichia coil TrxR incubated for 2 hrs in presence of DTT and insulin
[8] = test system: HepG2; experiment: Induction of cell cycle arrest in human HepG2 cells assessed as accumulation at G2 phase at 10 uM incubated for 48 hrs by propidium iodide staining based flow cytometry (reference value: 14.85%); format: functional
[9] = test system: HepG2; experiment: Induction of cell cycle arrest in human HepG2 cells assessed as accumulation at G1 phase at 10 uM incubated for 48 hrs by propidium iodide staining based flow cytometry (reference value: 64.6%); format: functional
[10] = Inhibition of recombinant TrxR (unknown origin) using DTNB as substrate incubated for 2 hrs in presence of NADPH; design: species or system Homo sapiens
[11] = test system: HepG2; experiment: Induction of cell cycle arrest in human HepG2 cells assessed as accumulation at S phase at 10 uM incubated for 48 hrs by propidium iodide staining based flow cytometry (reference value: 20.55%); format: functional
[12] = species on record: Homo sapiens; experiment: Inhibition of recombinant TrxR (unknown origin) using DTNB as substrate at 10 to 40 uM incubated for 2 hrs in presence of NADPH; details: dose 10-40 µM
[13] = molecular target: Thioredoxin reductase (Escherichia coli (strain K12)) (UniProt P0A9P4); experiment: Inhibition of Escherichia coil TrxR at 10 to 40 uM incubated for 2 hrs in presence of DTT and insulin; details: dose 10-40 µM
[14] = test system: HepG2; experiment: Inhibition of TrxR in human HepG2 cells at 2.5 to 10 uM incubated for 48 hrs by NBL-SS probe based assay; format: cell-based; details: dose 2.5-10 µM
[15] = test system: HepG2; experiment: Induction of ROS generation in human HepG2 cells assessed as increase in intracellular ROS level at 2.5 to 10 uM incubated for 48 hrs by DCFH-DA staining based fluorescence microscopy; format: functional, cell-based; details: dose 2.5-10 µM
[16] = test system: HepG2; experiment: Inhibition of cell migration in human HepG2 cells at 5 to 10 uM incubated upto 48 hrs by wound healing assay; format: functional, cell-based; details: dose 5-10 µM

Thioredoxin reductase, sequence (P0A9P4 whole entry): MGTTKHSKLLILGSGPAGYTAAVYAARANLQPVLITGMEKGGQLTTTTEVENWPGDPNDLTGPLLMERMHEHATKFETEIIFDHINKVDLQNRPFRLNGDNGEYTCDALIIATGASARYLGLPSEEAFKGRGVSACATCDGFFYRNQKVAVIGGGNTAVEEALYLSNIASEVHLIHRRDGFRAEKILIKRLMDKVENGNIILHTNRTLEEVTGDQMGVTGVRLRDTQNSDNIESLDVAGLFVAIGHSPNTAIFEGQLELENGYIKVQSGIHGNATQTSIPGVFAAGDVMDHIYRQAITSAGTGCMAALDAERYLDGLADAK
Thioredoxin reductase (Escherichia coli (strain K12)), sequence (P0A9P4 whole entry): as above

Structure (SMILES)	IC50 [1] [µM]	IC50 [2] [µM]	IC50 [3] [µM]	other results
C=C(COC(=O)Nc1ccc(C)cc1)C(=O)NC(C(=O)NC(C)(C)C)c1ccc(Cl)cc1Cl (configuration not stated)	> 20	> 20	> 20	–
C=C(COC(=O)Nc1ccc(C)cc1)C(=O)NC(C(=O)NCC(=O)OCC)c1ccc(Cl)cc1Cl (configuration not stated)	> 20	> 20	> 20	–
C=C(COC(=O)Nc1ccc(C)cc1)C(=O)NC(C(=O)NC(C)(C)C)c1ccc(F)cc1 (configuration not stated)	> 20	> 20	> 20	–
CCC(C)SSc1ncc[nH]1 (configuration not stated) [PX-12]	12	> 20	9	–
C=C(COC(=O)Nc1ccc(C)cc1)C(=O)NC(CC(C)C)C(=O)NCC(=O)OCC (configuration not stated)	4.7	> 20	> 20	inhibition [4]: Dose-Dependent Effect; inhibition [5]: Dose-Dependent Effect; inhibition at 5 µM [6]: 67.1%; IC50 [7]: 16.6 µM; Activity [8]: 10.02%; Activity [9]: 72.24%; IC50 [10]: 4.18 µM; Activity [11]: 17.74%; inhibition [12]: Dose-Dependent Effect; inhibition [13]: Dose-Dependent Effect; inhibition [14]: Dose-Dependent Effect; Activity [15]: Dose-Dependent Effect; inhibition [16]: Dose-Dependent Effect
C=C(COC(=O)Nc1ccc(C)cc1)C(=O)NC(CC(C)C)C(=O)NC(C)(C)C (configuration not stated)	> 20	> 20	> 20	–
C=C(COC(=O)Nc1ccc(C)cc1)C(=O)NC(C(=O)NC(C)(C)C)c1ccc(Br)cc1 (configuration not stated)	> 20	> 20	> 20	–
C=C(COC(=O)Nc1ccc(C)cc1)C(=O)NC(C(=O)NCC(=O)OCC)c1ccc(Cl)cc1 (configuration not stated)	> 20	> 20	> 20	–
C=C(COC(=O)Nc1ccc(C)cc1)C(=O)NC(C(=O)NC(C)(C)C)c1ccccc1 (configuration not stated)	> 20	> 20	> 20	–
C=C(COC(=O)Nc1ccc(C)cc1)C(=O)NC(C(=O)NCC(=O)OCC)c1ccc(Br)cc1 (configuration not stated)	18.8	> 20	> 20	–
C=C(COC(=O)Nc1ccc(C)cc1)C(=O)NC(C(=O)NCC(=O)OCC)c1ccccc1 (configuration not stated)	11.5	> 20	> 20	–
C=C(COC(=O)Nc1ccc(C)cc1)C(=O)NC(C(=O)NC(C)(C)C)c1ccc(Cl)cc1 (configuration not stated)	11.6	> 20	> 20	–
C=C(COC(=O)Nc1ccc(C)cc1)C(=O)NC(C(=O)NCC(=O)OCC)c1ccc(F)cc1 (configuration not stated)	17.6	> 20	> 20	–
